EP0207497A2, “Quinolonecarboxylic acid derivative and process for its preparation” (KYORIN PHARMACEUTICAL CO., LTD., priority 1985, dated 1987)
Values after ≈ are worked out from the molar mass of the structure shown.

Experiments:
Experiment in all cases: Antibacterial spectrum, MIC determination (method of Japan Society of Chemotherapy)
Assay type in all cases: cell-based
[1] = tested on: Salmonella enteritidis IID 604; conditions: Salmonella enterica; Salmonella enteritidis IID 604, Gram -, 10^6 cells/ml; read-out: MIC
[2] = tested on: S. aureus IID 670 (Terajima); conditions: Staphylococcus aureus, IID670; S. aureus IID 670 (Terajima), Gram +, 10^6 cells/ml; read-out: MIC
[3] = tested on: Peptococcus magnus KY 017; conditions: Finegoldia magna, KY017; Peptococcus magnus KY 017, Gram +, 10^6 cells/ml; read-out: MIC
[4] = tested on: Morganella morganii IID 602; conditions: IID602; Morganella morganii IID 602, Gram -, 10^6 cells/ml
[5] = tested on: Clostridium difficile I-E; conditions: Clostridioides difficile, Gram +, 10^6 cells/ml
[6] = tested on: Bacteroides fragilis GM 7000; conditions: GM7000; Bacteroides fragilis GM 7000, Gram -, 10^6 cells/ml; read-out: MIC
[7] = tested on: B. fragilis 25285; conditions: Bacteroides fragilis; B. fragilis 25285, Gram -, 10^6 cells/ml; read-out: MIC
[8] = tested on: Escherichia coli NIHJ JC-2; conditions: NIHJJC2; Escherichia coli NIHJ JC-2, Gram -, 10^6 cells/ml
[9] = tested on: E. faecalis IID 682; conditions: Enterococcus faecalis, IID682; E. faecalis IID 682, Gram +, 10^6 cells/ml
[10] = tested on: Peptostreptococcus anaerobius KYA 27337; conditions: KYA27337; Peptostreptococcus anaerobius KYA 27337, Gram +, 10^6 cells/ml; read-out: MIC
[11] = tested on: F. necrophorum S-45; conditions: Fusobacterium necrophorum, S45; F. necrophorum S-45, Gram -, 10^6 cells/ml
[12] = tested on: E. coli ATCC 10536; conditions: Escherichia coli, ATCC10536; E. coli ATCC 10536, Gram -, 10^6 cells/ml; read-out: MIC
[13] = tested on: Eubacterium lentum GAI 5242; conditions: Eggerthella lenta, GAI5242; Eubacterium lentum GAI 5242, Gram +, 10^6 cells/ml
[14] = tested on: S. pneumoniae IID 552; conditions: Streptococcus pneumoniae, IID552; S. pneumoniae IID 552, Gram +, 10^6 cells/ml
[15] = tested on: Fusobacterium mortiferum 4249; conditions: Fusobacterium mortiferum 4249, Gram -, 10^6 cells/ml; read-out: MIC
[16] = tested on: S. pyogenes IID 692; conditions: Streptococcus pyogenes, IID692; S. pyogenes IID 692, Gram +, 10^6 cells/ml
[17] = tested on: Yersinia enterocolitica IID 981; conditions: IID981; Yersinia enterocolitica IID 981, Gram -, 10^6 cells/ml; read-out: MIC
[18] = tested on: Staphylococcus aureus 209 P; conditions: Staphylococcus aureus 209 P, Gram +, 10^6 cells/ml; read-out: MIC
[19] = tested on: E. coli ML 4707; conditions: Escherichia coli, ML4707; E. coli ML 4707, Gram -, 10^6 cells/ml; read-out: MIC
[20] = tested on: B. vulgatus KYA 29327; conditions: Phocaeicola vulgatus, KYA29327; B. vulgatus KYA 29327, Gram -, 10^6 cells/ml; read-out: MIC
[21] = tested on: B. distasonis 8503; conditions: Parabacteroides distasonis; B. distasonis 8503, Gram -, 10^6 cells/ml; read-out: MIC
[22] = tested on: Acinetobacter anitratus IID 876; conditions: Acinetobacter calcoaceticus, IID876; Acinetobacter anitratus IID 876, Gram -, 10^6 cells/ml; read-out: MIC
[23] = tested on: Citrobacter freundii IID 976; conditions: IID976; Citrobacter freundii IID 976, Gram -, 10^6 cells/ml; read-out: MIC
[24] = tested on: S. aureus Smith; conditions: Staphylococcus aureus; S. aureus Smith, Gram +, 10^6 cells/ml; read-out: MIC
[25] = tested on: B. fragilis 0558; conditions: Bacteroides fragilis; B. fragilis 0558, Gram -, 10^6 cells/ml; read-out: MIC
[26] = tested on: Klebsiella pneumoniae KY(GN)6445; conditions: Klebsiella pneumoniae KY(GN)6445, Gram -, 10^6 cells/ml; read-out: MIC
[27] = tested on: P. cepacia GIFU 518; conditions: Burkholderia cepacia, GIFU518; P. cepacia GIFU 518, Gram -, 10^6 cells/ml; read-out: MIC
[28] = tested on: Shigella sonnei IID 969; conditions: IID969; Shigella sonnei IID 969, Gram -, 10^6 cells/ml
Procedure: Minimal inhibitory concentrations (MICs) were determined in accordance with the method recommended by Japan Society of Chemotherapy.

[29] = tested on: Streptococcus pyogenes (S-8); conditions: Streptococcus pyogenes (S-8), Gram +, 10^6 cells/ml; read-out: MIC
[30] = tested on: Serratia marcescens IID 618; conditions: IID618; Serratia marcescens IID 618, Gram -, 10^6 cells/ml; read-out: MIC

SMILES: NC1CCN(c2c(F)cc3c(=O)c(C(=O)O)cn(C4CC4)c3c2Br)C1 (stereo not drawn) [Exp. 1, 7-(3-Amino-1-pyrrolidinyl)-8-bromo-1-cyclopropyl-6-fluoro-1,4-dihydro-4-oxo-3-quinolinecarboxylic acid]
- MIC [1]: 0.025 µg/mL (≈ 0.0609 µM)
- MIC [2]: 0.05 µg/mL (≈ 0.122 µM)
- MIC [3]: 0.1 µg/mL (≈ 0.244 µM)
- MIC [4]: 0.05 µg/mL (≈ 0.122 µM)
- MIC [5]: 0.78 µg/mL (≈ 1.9 µM)
- MIC [6]: 0.1 µg/mL (≈ 0.244 µM)
- MIC [7]: 0.1 µg/mL (≈ 0.244 µM)
- MIC [8]: 0.0063 µg/mL (≈ 0.0154 µM)
- MIC [9]: 0.1 µg/mL (≈ 0.244 µM)
- MIC [10]: 0.2 µg/mL (≈ 0.488 µM)
- MIC [11]: 0.2 µg/mL (≈ 0.488 µM)
- MIC [12]: 0.0125 µg/mL (≈ 0.0305 µM)
- MIC [13]: 0.1 µg/mL (≈ 0.244 µM)
- MIC [14]: 0.1 µg/mL (≈ 0.244 µM)
- MIC [15]: 0.2 µg/mL (≈ 0.488 µM)
- MIC [16]: 0.2 µg/mL (≈ 0.488 µM)
- MIC [17]: 0.025 µg/mL (≈ 0.0609 µM)
- MIC [18]: 0.05 µg/mL (≈ 0.122 µM)
- MIC [19]: 0.0125 µg/mL (≈ 0.0305 µM)
- MIC [20]: 0.2 µg/mL (≈ 0.488 µM)
- MIC [21]: 0.39 µg/mL (≈ 0.951 µM)
- MIC [22]: 0.05 µg/mL (≈ 0.122 µM)
- MIC [23]: 0.025 µg/mL (≈ 0.0609 µM)
- MIC [24]: 0.05 µg/mL (≈ 0.122 µM)
- MIC [25]: 0.1 µg/mL (≈ 0.244 µM)
- MIC [26]: 0.0125 µg/mL (≈ 0.0305 µM)
- MIC [27]: 0.39 µg/mL (≈ 0.951 µM)
- MIC [28]: 0.0063 µg/mL (≈ 0.0154 µM)
- MIC [29]: 0.1 µg/mL (≈ 0.244 µM)
- MIC [30]: 0.05 µg/mL (≈ 0.122 µM)
